Laboratory results from patent publication US9364448B2, “Nitisinone for treatment of oculocutaneous/ocular albinism and for increasing pigmentation” (The United States of America, as represented by the …, priority 2010, dated 2016).

Tests used:
[1] = test system: C57BL/6J-Tyr^c-2J/c-2J mice (OCA1a model); experiment: Transmission electron microscopy of iris, RPE and choroid, Tyr^c-2J/c-2J mice; format: in vivo, mouse; details: treated vs untreated
Description: Transmission Electron Microscopy. Eyes from drug and vehicle-treated mice were dissected and divided into anterior and posterior segments (n=2 eyes from 2 separate mice in each group). The iris and posterior part (choroid, RPE and retina) of the eyes were removed and fixed in 2% glutaraldehyde and 2% paraformaldehyde in 0.1 M sodium phosphate buffer (PB), pH 7.4 for about 12 hours at room temperature (RT). After a wash with rinsing buffer (RB, 4% sucrose and 0.15 mM CaCl2 in PB), pH 7.4 at 4° C., tissues were postfixed in 1% OsO4 in 0.1 M PB, pH 7.4 for 1 hour. After rinsing and dehydration, tissues were embedded in Durcupan resin for 72 hours at 60° C. One micron semi-sections were used for tissue orientation. About 70-90 nm ultrasections were also collected in 200 mesh grids and counterstained with 5% uranyl acetate and 0.3% lead citrate. […]
In order to quantitate the effect of NTBC on pigmentation in ocular tissues and to assess for sub-clinical changes in ocular pigmentation, transmission electron microscopy (TEM) of iris, retinal pigment epithelium (RPE), and choroid of treated and control mice (n=4 eyes from 2 mice for each group) was performed. […]

[2] = test system: Tyr^c-h/c-h pups; experiment: Prenatal NTBC treatment of pregnant Tyr^c-h/c-h females, pup examination
Description: Drug Dosing and Monitoring. Ten C57BL/6J Tyr^c-2J/c-2J and ten C57BL/6Tyr^c-h/c-h mice, 3-4 months of age were designated for treatment with NTBC (Swedish Orphan Drug, Stockholm, Sweden). An equal number of age-matched controls of each genotype designated to receive vehicle treatment. NTBC was dissolved in 2 M NaOH and brought to neutral pH before administration to mice. Coat color, iris transillumination and fundus appearance were photodocumented prior to treatment. Because pigment deposition in hair is stimulated with new hair growth, a section of each mouse's coat was shaved prior to the beginning of the experiment. Drug or vehicle was given every other day via oral gavages, at a dosage of about 4 mg/kg, in a volume of about 0.2-0.3 ml. […] Coat color, iris transillumination and fundus appearance were photodocumented at the end of 1 month of treatment or vehicle dosing. For prenatal treatment experiments, pregnancy was determined by a maternal weight gain of >2 g over 7-9 days, after observing a vaginal mucus plug. Treatment with 4 mg/kg NTBC was initiated daily at day 9 or 10 of pregnancy by oral gavage, and given until birth of the litter. At that point, every-other-day oral treatment of the mother was initiated until time of weaning.

[3] = test system: melanocytes from a patient with OCA-1B; experiment: Human melanocyte melanin assay, OCA-1B patient; format: cell-based; details: 1 mM tyrosine, p=0.0025, not to wild-type level
Description: Human melanocyte culture and melanin assay. Human melanocytes were established from skin punch biopsies. Skin specimens were washed with PBS then treated with 0.25% trypsin-EDTA (Gibco 25200) for about 2 hours followed by vigorous vortexing to separate the epidermis. The epidermis was sectioned and attached to scored patches on the bottom of a 6-well polystyrene culture dish before being covered with melanocyte media. About 1000 ml of melanocyte media was made from 950 ml Ham's F10 (Gibco 1550), 25 ml FBS, 5 ug bFGF (Sigma F0291), 10 μg endothelin (Sigma, E7764, Sigma Chemicals, St. Louis, Mo.), 7.5 mg IBMX (Sigma 17018), 30 μg cholera toxin (Sigma C8052), 3.3 μg TPA (Sigma P8139), 10 ml PenStrepGlutamine, 1 ml fungizone and the media was 0.22 μm filtered.
Melanocytes were plated on 6 well dishes and grown to confluency. Melanin assays were run in triplicate by supplementing three wells per plate with 1 mM tyrosine (Sigma T8566), using the remaining 3 wells as untreated controls. Treatment time was approximately one week. […] The OD475 was measured and converted to melanin content via a standard curve using synthetic melanin (Sigma M0418). The data were normalized to protein content, determined using a bicinchoninic (BCA) assay kit (BioRad, Inc., Hercules, Calif.). Differences between treated and untreated measurements were analyzed with a two-tailed unpaired t-test. […]

| Compound | Number of pigmented melanosomes (stages III and IV) in iris, choroid and RPE (TEM) [1] | Fundus appearance of pups, vehicle- vs drug-treated dams ([2]; Tyr^c-h/c-h, 4 mg/kg) | Congenital malformations or systemic illnesses in pups of treated mothers ([2]; Tyr^c-h/c-h, 4 mg/kg prenatal treatment) | Iris pigmentation of pups on clinical examination ([2]; pups of NTBC-treated Tyr^c-h/c-h mothers, 4 mg/kg, near time of weaning) | Coat color of pups ([2]; pups of NTBC-treated Tyr^c-h/c-h mothers, 4 mg/kg, vs vehicle-treated mothers) | Pigmentation [3] |
| --- | --- | --- | --- | --- | --- | --- |
| O=C1CCCC(=O)C1C(=O)c1ccc(C(F)(F)F)cc1[N+](=O)[O-] [NTBC, 2-(-2-nitro-4 trifluoromethylbenzoyl)-1,3 cyclohexanedione] | little to no increase | no significant difference | no obvious congenital malformations or systemic illnesses | significant pigmentation | considerably darker | – |
| N[C@@H](Cc1ccc(O)cc1)C(=O)O [tyrosine] | – | – | – | – | – | significantly increased pigmentation |
